According to patent US9550796B2, “Pyrrolopyrrolone derivatives and their use as BET inhibitors” (NOVARTIS AG, priority 2013, dated 2017):
pIC50: −log10 of the molar value.

Columns and labels:
[1] = molecular target: BRD4 (Homo sapiens (Human), UniProt O60885); assay: TR-FRET in-vitro binding assay for BRD4; details: 45 nM His-Brd4(44-477), acetyl-histone H4 (AcK 5, 8, 12, 16) peptide
In short: (§1)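 Eight-point compound dilutions, delivered in 90% DMSO, were tested in a 13.55 μL final reaction. Reactions ran 35 minutes at 30° C before TR-FRET measurement.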

[2] = molecular target: BRD2 (Homo sapiens (Human), UniProt P25440); assay: TR-FRET in-vitro binding assay for BRD2; details: 45 nM His-Brd2(60-472), acetyl-histone H4 (AcK 5, 8, 12, 16) peptide
Sequence of BRD2 (P25440 60-472): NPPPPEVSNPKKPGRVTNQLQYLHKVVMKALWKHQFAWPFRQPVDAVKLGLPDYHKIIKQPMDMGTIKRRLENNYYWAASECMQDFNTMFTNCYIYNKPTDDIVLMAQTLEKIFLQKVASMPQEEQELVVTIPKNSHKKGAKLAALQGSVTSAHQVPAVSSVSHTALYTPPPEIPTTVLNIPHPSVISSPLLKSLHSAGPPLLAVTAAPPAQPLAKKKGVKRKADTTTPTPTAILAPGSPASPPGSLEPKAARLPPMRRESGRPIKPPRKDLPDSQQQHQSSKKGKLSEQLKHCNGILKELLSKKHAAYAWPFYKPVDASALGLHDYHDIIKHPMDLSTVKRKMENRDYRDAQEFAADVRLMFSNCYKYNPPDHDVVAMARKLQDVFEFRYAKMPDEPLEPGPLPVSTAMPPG
In short: as §1

[3] = molecular target: BRD3 (Homo sapiens (Human), UniProt Q15059); assay: TR-FRET in-vitro binding assay for BRD3; details: 45 nM His-Brd3(20-477), acetyl-histone H4 (AcK 5, 8, 12, 16) peptide
Sequence of BRD3 (Q15059 20-477): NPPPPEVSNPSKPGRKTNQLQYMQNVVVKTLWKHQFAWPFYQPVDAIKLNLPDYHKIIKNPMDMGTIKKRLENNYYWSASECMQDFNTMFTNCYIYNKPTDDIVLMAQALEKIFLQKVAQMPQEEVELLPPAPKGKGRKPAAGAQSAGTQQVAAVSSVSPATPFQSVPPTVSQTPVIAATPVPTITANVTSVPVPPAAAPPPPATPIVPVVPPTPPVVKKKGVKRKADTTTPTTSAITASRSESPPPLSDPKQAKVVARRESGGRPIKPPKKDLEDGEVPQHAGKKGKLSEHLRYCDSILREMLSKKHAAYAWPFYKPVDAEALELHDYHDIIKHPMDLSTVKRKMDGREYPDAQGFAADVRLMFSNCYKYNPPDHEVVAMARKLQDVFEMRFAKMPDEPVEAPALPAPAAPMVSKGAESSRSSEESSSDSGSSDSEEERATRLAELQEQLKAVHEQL
In short: as §1

[4] = tested on: MV-4-11; assay: Cell growth inhibition assay (CellTiter-Glo), MV-4-11; assay type: cell-based, human; details: MV-4-11 cells, 4 days; for GI50: Homo sapiens, MV4-11, 96 h, half-maximal growth inhibition; for MV-4-11 TGI: total growth inhibition
In short: (§2)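 ATP content was quantified with CellTiter-Glo after 4-day compound treatment (top 10 μM, 3-fold steps) at 37 °C. Readings were background- and day-0-corrected, scaled so vehicle equals 100% and medium equals −100%. Four-parameter fits gave half-maximal (IC50) and total growth inhibition concentrations.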

[5] = tested on: THP-1; assay: Cell growth inhibition assay (CellTiter-Glo), THP-1; assay type: cell-based, human; details: THP-1 cells, 4 days; for GI50: Homo sapiens, 96 h, half-maximal growth inhibition; for THP-1 TGI: total growth inhibition
In short: as §2

[6] = tested on: K-562; assay: Cell growth inhibition assay (CellTiter-Glo), K-562; assay type: cell-based, human; details: K-562 cells, 4 days; for GI50: Homo sapiens, K562, 96 h, half-maximal growth inhibition; for K-562 TGI: total growth inhibition
In short: as §2

[7] = molecular target: BRD4-NUT-fusion (Homo sapiens, UniProt O60885); assay: Nut-foci formation assay in HCC2494 NUT midline carcinoma cells; assay type: cell-based; details: 24 hours, nuclear BRD4-NUT foci by immunofluorescence microscopy, read-out: HCS Brd4-NUT IC50
Protocol: Nut-Foci Formation Assay […] Compound-mediated inhibition of BRD4 activity can be monitored by quantification of the number and intensity of nuclear BRD4-NUT foci using automated immunofluorescence microscopy. Briefly, 5000 cells in 20 μL fresh medium are seeded into Poly-D-Lysine-precoated 384-well plates and incubated overnight at 37° C. and 5% CO2, followed by addition of 5 μl medium containing compound dilutions at 5-fold their final intended concentration. […] Assay plates can be imaged using the appropriate filter sets on the Cellomics VTi automated fluorescence microscopy platform (ThermoFisher Scientific) and the population average of the number of NUT-foci per nucleus is quantified using the Cellomics Spot Detection BioApplication image analysis algorithm (ThermoFisher Scientific). […] Compound concentrations leading to half-maximal (IC50) inhibition of the aforementioned readout parameters are determined using standard four parameter curve fitting.

| pIC50 [1] | pIC50 [2] | pIC50 [3] | GI50 [4] [nM] | GI50 [5] [nM] | GI50 [6] [nM] | pIC50 [7] | SMILES | MV-4-11 TGI [4] [µM] | THP-1 TGI [5] [µM] | K-562 TGI [6] [µM] |
| --- | --- | --- | --- | --- | --- | --- | --- | --- | --- | --- |
| 7.34 | 7.43 | 7.38 | 20.8 | 31.6 | 105 | 7.13 | Cc1cc(N2C(=O)c3cc(-c4ccc(N(C)C)nc4)n(C)c3C2c2ccc(Cl)cc2)cn(C)c1=O (centres unmarked) [Example 50, 6-(4-chlorophenyl)-5-(1,5-dimethyl-6-oxo-1,6-dihydropyridin-3-yl)-2-(6-(dimethylamino)pyridin-3-yl)-1-methyl-5,6-dihydropyrrolo[3,4-b]pyrrol-4(1H)-one] | 0.033 | 0.0649 | >10 |
| 7.28 | 7.28 | 7.30 | 34.5 | 76.3 | 231 | 6.84 | COc1ncc(-c2cc3c(n2C)C(c2ccc(Cl)cc2)N(c2cc(C)c(=O)n(C)c2)C3=O)cn1 (centres unmarked) [Example 55, 6-(4-chlorophenyl)-5-(1,5-dimethyl-6-oxo-1,6-dihydropyridin-3-yl)-2-(2-methoxypyrimidin-5-yl)-1-methyl-5,6-dihydropyrrolo[3,4-b]pyrrol-4(1H)-one] | 0.0542 | 0.13 | >10 |
| 7.17 | 7.17 | 7.28 | 61.6 | 102 | 421 | 6.87 | Cc1cc(N2C(=O)c3ccn(C4CC4)c3C2c2ccc(Cl)cc2)cn(C)c1=O (centres unmarked) [Example 61, 6-(4-chlorophenyl)-1-cyclopropyl-5-(1,5-dimethyl-6-oxo-1,6-dihydropyridin-3-yl)-5,6-dihydropyrrolo[3,4-b]pyrrol-4(1H)-one] | 0.106 | 0.224 | >10 |
| 6.82 |  |  | 486 | 573 | 1610 | 6.14 | Cn1ccc2c1C(c1ccc(Cl)cc1)N(c1ccc(=O)n(C)c1)C2=O (centres unmarked) [Example 78, 6-(4-chlorophenyl)-1-methyl-5-(1-methyl-6-oxo-1,6-dihydropyridin-3-yl)-5,6-dihydropyrrolo[3,4-b]pyrrol-4(1H)-one] | 0.7945 | 1.35 | >10 |
